Assay results from ChEMBL document CHEMBL3588852, “Gastroprotective activity of ent-beyerene derivatives in mice: Effects on gastric secretion, endogenous prostaglandins and non-protein sulfhydryls” (Bioorg Med Chem Lett, 2015).
pIC50: −log10 of the molar value.

How the values were obtained:
[1] = test system: Mus musculus; assay: Gastroprotective activity in Swiss albino mouse model of HCl/EtOH-induced lesion assessed as inhibition of gastric lesions at 100 mg/kg, po dosed 50 mins before HCl/EtOH challenge and measured 1 hr post HCl/EtOH challenge; type: functional; details: Stomach
[2] = test system: AGS; assay: Cytotoxic activity against human AGS cells assessed as reduction in cell viability incubated for 48 hrs by MTT assay; type: cell-based
[3] = test system: Mus musculus; assay: Gastroprotective activity in Swiss albino mouse model of HCl/EtOH-induced lesion assessed as inhibition of gastric lesions at 12.5 to 100 mg/kg, po dosed 50 mins before HCl/EtOH challenge and measured 1 hr post HCl/EtOH challenge; type: functional; details: Stomach
[4] = test system: Mus musculus; assay: Gastroprotective activity in Swiss albino mouse model of HCl/EtOH-induced lesion assessed as inhibition of gastric lesions at 50 mg/kg, po dosed 50 mins before HCl/EtOH challenge and measured 1 hr post HCl/EtOH challenge; type: functional; details: Stomach
[5] = Cytotoxic activity against human fibroblasts assessed as reduction in cell viability incubated for 48 hrs by MTT assay; type: cell-based; details: Fibroblast
[6] = test system: Mus musculus; assay: Gastroprotective activity in Swiss albino mouse model of HCl/EtOH-induced lesion pre-treated with 3.5 mg/kg vanilloid receptor antagonist ruthenium red assessed as gastric lesion index at 50 mg/kg, po dosed 50 mins before HCl/EtOH challenge and measured 1 hr post HCl/EtOH challenge (reference value: 12.1 +/- 2.5 mm); type: functional, Stomach
[7] = test system: Mus musculus; assay: (§1) Gastroprotective activity in Swiss albino mouse model of HCl/EtOH-induced lesion pre-treated with 10 mg/kg sulfhydryl inhibitor NEM assessed as gastric lesion index at 50 mg/kg, po dosed 50 mins before HCl/EtOH challenge and measured 1 hr post HCl/EtOH challenge (reference value: 12.1 +/- 2.5 mm); type: functional, Stomach
[8] = test system: Mus musculus; assay: Gastroprotective activity in Swiss albino mouse model of HCl/EtOH-induced lesion assessed as gastric lesion index at 50 mg/kg, po dosed 50 mins before HCl/EtOH challenge and measured 1 hr post HCl/EtOH challenge (reference value: 42 +/- 1.9 mm); type: functional, Stomach
[9] = test system: Mus musculus; assay: as §1, with “prostaglandin synthesis” for “sulfhydryl”, “indomethacin” for “NEM”; type: functional, Stomach
[10] = test system: Mus musculus; assay: as §1, with “70” for “10”, “NO synthase” for “sulfhydryl”, “L-NAME” for “NEM”; type: functional, Stomach
[11] = test system: Mus musculus; assay: Gastroprotective activity in Swiss albino mouse model of HCl/EtOH-induced lesion assessed as inhibition of gastric lesions at 20 mg/kg, po dosed 50 mins before HCl/EtOH challenge and measured 1 hr post HCl/EtOH challenge; type: functional; details: Stomach
[12] = test system: Mus musculus; assay: Gastroprotective activity in Swiss albino mouse model of HCl/EtOH-induced lesion assessed as gastric lesion index at 70 mg/kg, po dosed 50 mins before HCl/EtOH challenge and measured 1 hr post HCl/EtOH challenge (reference value: 42 +/- 1.9 mm); type: functional, Stomach
[13] = test system: Mus musculus; assay: Gastroprotective activity in Swiss albino mouse model of HCl/EtOH-induced lesion assessed as gastric lesion index at 10 mg/kg, po dosed 50 mins before HCl/EtOH challenge and measured 1 hr post HCl/EtOH challenge (reference value: 42 +/- 1.9 mm); type: functional, Stomach
[14] = test system: Mus musculus; assay: Gastroprotective activity in Swiss albino mouse model of HCl/EtOH-induced lesion assessed as gastric lesion index at 100 mg/kg, po dosed 50 mins before HCl/EtOH challenge and measured 1 hr post HCl/EtOH challenge (reference value: 42 +/- 1.9 mm); type: functional, Stomach

`C[C@]12C=C[C@@]3(CC[C@@H]4[C@@](C)(CO)CCC[C@@]4(C)[C@@H]3CC1)C2` gave an inhibition in vivo at 100 mg/kg [1] of 79%, a pIC50 [2] of 4.72 and an ED50 [3] of 50 mg/kg. For the same compound, the inhibition [3] was “Dose-dependent effect”, the inhibition in vivo at 50 mg/kg [4] was 53% and the pIC50 [5] was 4.51.
Compound `COc1ccc(/C=C/C(=O)OC[C@@]2(C)CCC[C@]3(C)[C@@H]2CC[C@@]24C=C[C@@](C)(CC[C@H]23)C4)cc1` has a pIC50 [2] of 3.64, an inhibition in vivo at 50 mg/kg [4] of 11% and a pIC50 [5] of 3.42.
Work on `CCCCCCCCCCCCCC(=O)OC[C@@]1(C)CCC[C@]2(C)[C@@H]1CC[C@@]13C=C[C@@](C)(CC[C@H]12)C3` yielded a pIC50 [2] of 4.42, an inhibition in vivo at 50 mg/kg [4] of 46% and a pIC50 [5] of 4.21.
Compound `C[C@]12C=C[C@@]3(CC[C@@H]4[C@@](C)(COC(=O)/C=C/c5cccc(Cl)c5)CCC[C@@]4(C)[C@@H]3CC1)C2` has an Activity [6] of 17 mm, a pIC50 [2] of 4.92 and an inhibition in vivo at 50 mg/kg [4] of 77%. For the same compound, the Activity [7] was 15.2 mm, the Activity [8] was 12.1 mm and the Activity [9] was 38.9 mm. The Activity [10] was 13.1 mm and the pIC50 [5] was 4.82.
Work on `Cc1ccc(/C=C/C(=O)OC[C@@]2(C)CCC[C@]3(C)[C@@H]2CC[C@@]24C=C[C@@](C)(CC[C@H]23)C4)cc1` yielded a pIC50 [2] of 4.41, an inhibition in vivo at 50 mg/kg [4] of 8% and a pIC50 [5] of 4.31.
`C[C@]12C=C[C@@]3(CC[C@@H]4[C@@](C)(COC(=O)/C=C/c5ccc(Cl)cc5)CCC[C@@]4(C)[C@@H]3CC1)C2` showed a pIC50 [2] of 4.74, an inhibition in vivo at 50 mg/kg [4] of 42% and a pIC50 [5] of 4.54.
Compound `Cc1c(OCC(F)(F)F)ccnc1C[S+]([O-])c1nc2ccccc2[nH]1` (stereo not given) [LANSOPRAZOLE] has a pIC50 [2] of 3.83, an inhibition in vivo at 50 mg/kg [4] of 65% and an inhibition in vivo at 20 mg/kg [11] of 57%. For the same compound, the pIC50 [5] was 3.54.
In the case of `CCCCCCCCCCCCCCCCCC(=O)OC[C@@]1(C)CCC[C@]2(C)[C@@H]1CC[C@@]13C=C[C@@](C)(CC[C@H]12)C3`, the pIC50 [2] was 3.64, the inhibition in vivo at 50 mg/kg [4] was 44% and the pIC50 [5] was 3.44.
`CCCCCCCCCCCCCCCC(=O)OC[C@@]1(C)CCC[C@]2(C)[C@@H]1CC[C@@]13C=C[C@@](C)(CC[C@H]12)C3` showed a pIC50 [2] of 4.19, an inhibition in vivo at 50 mg/kg [4] of 46% and a pIC50 [5] of 4.06.
`C[C@]12C=C[C@@]3(CC[C@@H]4[C@@](C)(COC(=O)/C=C/c5ccccc5)CCC[C@@]4(C)[C@@H]3CC1)C2` showed a pIC50 [2] of 4.52, an inhibition in vivo at 50 mg/kg [4] of 68% and a pIC50 [5] of 4.35.
`CCCCCCCCCC(=O)OC[C@@]1(C)CCC[C@]2(C)[C@@H]1CC[C@@]13C=C[C@@](C)(CC[C@H]12)C3` showed a pIC50 [2] of 4.68, an inhibition in vivo at 50 mg/kg [4] of 52% and a pIC50 [5] of 4.48.
With `C[C@]12C=C[C@@]3(CC[C@@H]4[C@@](C)(COC(=O)/C=C/c5ccc([N+](=O)[O-])cc5)CCC[C@@]4(C)[C@@H]3CC1)C2` the pIC50 [2] was 4.46, the inhibition in vivo at 50 mg/kg [4] was 0% and the pIC50 [5] was 4.21.
`CCCCCCCCCCCC(=O)OC[C@@]1(C)CCC[C@]2(C)[C@@H]1CC[C@@]13C=C[C@@](C)(CC[C@H]12)C3` showed a pIC50 [2] of 4.48, an inhibition in vivo at 50 mg/kg [4] of 51% and a pIC50 [5] of 4.28.
Work on `COc1ccccc1/C=C/C(=O)OC[C@@]1(C)CCC[C@]2(C)[C@@H]1CC[C@@]13C=C[C@@](C)(CC[C@H]12)C3` yielded a pIC50 [2] of 3.82, an inhibition in vivo at 50 mg/kg [4] of 7% and a pIC50 [5] of 3.51.
`COC(=O)[C@@H](N)CCCNC(=N)N[N+](=O)[O-]` [L-NAME] gave an Activity [12] of 42.7 mm.
For `C[C@]12C=C[C@@]3(CC[C@@H]4[C@@](C)(COC(=O)/C=C/c5ccccc5[N+](=O)[O-])CCC[C@@]4(C)[C@@H]3CC1)C2`, the pIC50 [2] was 4.60, the inhibition in vivo at 50 mg/kg [4] was 14% and the pIC50 [5] was 4.42.
In the case of `COc1ccc2c(c1)c(CC(=O)O)c(C)n2C(=O)c1ccc(Cl)cc1` [INDOMETHACIN], the Activity [13] was 39.9 mm.
In the case of `C[C@]12C=C[C@@]3(CC[C@@H]4[C@@](C)(COC(=O)/C=C/c5cccc([N+](=O)[O-])c5)CCC[C@@]4(C)[C@@H]3CC1)C2`, the pIC50 [2] was 4.54, the inhibition in vivo at 50 mg/kg [4] was 2% and the pIC50 [5] was 4.36.
Compound `COc1cccc(/C=C/C(=O)OC[C@@]2(C)CCC[C@]3(C)[C@@H]2CC[C@@]24C=C[C@@](C)(CC[C@H]23)C4)c1` has a pIC50 [2] of 3.78, an inhibition in vivo at 50 mg/kg [4] of 4% and a pIC50 [5] of 3.54.
`CCN1C(=O)C=CC1=O` [N-ETHYLMALEIMIDE] gave an Activity [13] of 41.9 mm.
`CC1(C)[C@@H](OC(=O)CCC(=O)O)CC[C@]2(C)[C@H]3C(=O)C=C4[C@@H]5C[C@@](C)(C(=O)O)CC[C@]5(C)CC[C@@]4(C)[C@]3(C)CC[C@@H]12` [CARBENOXOLONE] gave an Activity [14] of 13.1 mm.
With `CCCCCCCCCCCCCCCCCCCC(=O)OC[C@@]1(C)CCC[C@]2(C)[C@@H]1CC[C@@]13C=C[C@@](C)(CC[C@H]12)C3` the pIC50 [2] was 3.49, the inhibition in vivo at 50 mg/kg [4] was 34% and the pIC50 [5] was 3.24.
With `C[C@]12C=C[C@@]3(CC[C@@H]4[C@@](C)(COC(=O)/C=C/c5ccc(F)cc5)CCC[C@@]4(C)[C@@H]3CC1)C2` the pIC50 [2] was 4.24, the inhibition in vivo at 50 mg/kg [4] was 24% and the pIC50 [5] was 4.16.
